Consider 18 compounds from patent US20190292174A1, “MICROBIOCIDAL OXADIAZOLE DERIVATIVES” (SYNGENTA PARTICIPATIONS AG, priority 2016, published 2019).

One may read the inhibition of growth as the change of the read-out against control, counted positive when it falls. High values mean a strong effect, low ones a weak effect. The term melting point denotes the temperature, or range, at which the solid turns liquid.

For series [1], the system named is Phakopsora pachyrhizi. Put plainly: Phakopsora pachyrhizi / soybean / leaf disc preventative (Asian soybean rust). In kind it is in vivo. Conditions: foliar, soybean leaf disks, compared to untreated control. On the procedure: Leaf disks or leaf segments of various plant species are cut from plants grown in a greenhouse. The cut leaf disks or segments are placed in multiwell plates (24-well format) onto water agar. The leaf disks are sprayed with a test solution before (preventative) or after (curative) inoculation. Compounds to be tested are prepared as DMSO solutions (max. 10 mg/ml) which are diluted to the appropriate concentration with 0.025% Tween20 just before spraying. The inoculated leaf disks or segments are incubated under defined conditions (temperature, relative humidity, light, etc.) according to the respective test system. A single evaluation of disease level is carried out 3 to 14 days after inoculation, depending on the pathosystem. Percent disease control relative to the untreated check leaf disks or segments is then calculated. Soybean leaf disks are placed on water agar in multiwell plates (24-well format) and sprayed with the formulated test compound diluted in water. One day after application leaf discs are inoculated by spraying a spore suspension on the lower leaf surface. After an incubation period in a climate cabinet of 24-36 hours in darkness at 20° C., and 75% rh leaf disc are kept at 20° C. with 12 h light/day and 75% rh. The activity of a compound is assessed as percent disease control compared to untreated when an appropriate level of disease damage appears in untreated check leaf disks (12-14 days after application).

Series [2] relates to Puccinia recondita f. sp. tritici. The series is described as follows: Puccinia recondita f. sp. tritici / wheat / leaf disc preventative (brown rust). In kind it is in vivo. Conditions: foliar, wheat leaf segments cv. Kanzler, preventative (inoculated 1 day after application), compared to untreated control. The procedure: Leaf disks or leaf segments of various plant species are cut from plants grown in a greenhouse. The cut leaf disks or segments are placed in multiwell plates (24-well format) onto water agar. The leaf disks are sprayed with a test solution before (preventative) or after (curative) inoculation. Compounds to be tested are prepared as DMSO solutions (max. 10 mg/ml) which are diluted to the appropriate concentration with 0.025% Tween20 just before spraying. The inoculated leaf disks or segments are incubated under defined conditions (temperature, relative humidity, light, etc.) according to the respective test system. A single evaluation of disease level is carried out 3 to 14 days after inoculation, depending on the pathosystem. Percent disease control relative to the untreated check leaf disks or segments is then calculated. Wheat leaf segments cv. Kanzler are placed on agar in multiwell plates (24-well format) and sprayed with the formulated test compound diluted in water. The leaf disks are inoculated with a spore suspension of the fungus 1 day after application. The inoculated leaf segments are incubated at 19° C. and 75% rh under a light regime of 12 h light/12 h darkness in a climate cabinet and the activity of a compound is assessed as percent disease control compared to untreated when an appropriate level of disease damage appears in untreated check leaf segments (7-9 days after application).

For series [3] the test system is unchanged. The series is described as follows: Puccinia recondita f. sp. tritici / wheat / leaf disc curative (brown rust). It is filed as in vivo. Conditions: foliar, 24 h, wheat leaf segments cv. Kanzler, curative (applied 1 day after inoculation), compared to untreated control, read-out: control of Puccinia recondita f. sp. tritic. On the procedure:
Leaf disks or leaf segments of various plant species are cut from plants grown in a greenhouse. The cut leaf disks or segments are placed in multiwell plates (24-well format) onto water agar. The leaf disks are sprayed with a test solution before (preventative) or after (curative) inoculation. Compounds to be tested are prepared as DMSO solutions (max. 10 mg/ml) which are diluted to the appropriate concentration with 0.025% Tween20 just before spraying. The inoculated leaf disks or segments are incubated under defined conditions (temperature, relative humidity, light, etc.) according to the respective test system. A single evaluation of disease level is carried out 3 to 14 days after inoculation, depending on the pathosystem. Percent disease control relative to the untreated check leaf disks or segments is then calculated. Wheat leaf segments cv. Kanzler are placed on agar in multiwell plates (24-well format). The leaf segments are inoculated with a spore suspension of the fungus. Plates are stored in darkness at 19° C., and 75% rh. The formulated test compound diluted in water is applied 1 day after inoculation. The leaf segments are incubated at 19° C., and 75% rh under a light regime of 12 h light/12 h darkness in a climate cabinet and the activity of a compound is assessed as percent disease control compared to untreated when an appropriate level of disease damage appears in untreated check leaf segments (6-8 days after application).

Series [4] deals with Glomerella lagenarium (Colletotrichum lagenarium). Put plainly: Glomerella lagenarium (Colletotrichum lagenarium) liquid culture / cucumber / preventative (anthracnose). It is filed as cell-based. Conditions: Colletotrichum orbiculare, liquid culture (PDB), growth inhibition measured photometrically 3-4 days after application, compared to untreated control. On the procedure: […] fragments or conidia suspensions of a fungus prepared either freshly from liquid cultures of the fungus or from cryogenic storage, are directly mixed into nutrient broth. DMSO solutions of the test compound (max. 10 mg/ml) are diluted with 0.025% Tween20 by a factor of 50 and 10 μl of this solution is pipetted into a microtiter plate (96-well format). The nutrient broth containing the fungal spores/mycelia fragments is then added to give an end concentration of the tested compound. The test plates are incubated in the dark at 24° C., and 96% relative humidity. The inhibition of fungal growth is determined photometrically after 2 to 7 days, depending on the pathosystem, and percent antifungal activity relative to the untreated check is calculated. Conidia of the fungus from cryogenic storage are directly mixed into nutrient broth (PDB potato dextrose broth). Alter placing a (DMSO) solution of test compound into a microtiter plate (96-well format), the nutrient broth containing the fungal spores is added. The test plates are incubated at 24° C., and the inhibition of growth is measured photometrically 3-4 days after application.

On to `CC(C)(C)NC(=O)CN(C(=O)c1ccc(-c2noc(C(F)(F)F)n2)cc1)N1CCOC1=O` [Compound 1.2, N-[2-(tert-butylamino)-2-oxo-ethyl]-N-(2-oxooxazolidin-3-yl)-4-[5-(trifluoromethyl)-1,2,4-oxadiazol-3-yl]benzamide], for which the pest or weed control at 200 ppm in series [1] and in series [2] was ≥ 80% throughout.
`CC(=O)NNC(=O)c1ccc(-c2noc(C(F)(F)F)n2)cc1F` [Compound 1.4, N′-acetyl-2-fluoro-4-[5-(trifluoromethyl)-1,2,4-oxadiazol-3-yl]benzohydrazide]: the pest or weed control at 200 ppm in series [1], in series [2] and in series [3] was ≥ 80% throughout.
Regarding `NN(C(=O)c1ccccc1)C(=O)c1ccc(-c2noc(C(F)(F)F)n2)cc1` [Compound 1.5, N-benzoyl-4-[5-(trifluoromethyl)-1,2,4-oxadiazol-3-yl]benzohydrazide], the melting point was in the range of 115.3 to 118.6 °C. In addition, the inhibition of growth at 20 ppm in series [4] was ≥ 80%. Also, the pest or weed control at 200 ppm in series [2] is ≥ 80%.
In turn, `O=C(NN1CCCCC1=O)c1ccc(-c2noc(C(F)(F)F)n2)cc1` [Compound 1.7, N-(2-oxo-1-piperidyl)-4-[5-(trifluoromethyl)-1,2,4-oxadiazol-3-yl]benzamide] showed a melting point of 192 to 216 °C. In addition, in series [1], the pest or weed control at 200 ppm was ≥ 80%. Moreover, the pest or weed control at 200 ppm in series [2] was ≥ 80%.
The compound `CN1CCN(NC(=O)c2ccc(-c3noc(C(F)(F)F)n3)cc2)C1=O` [Compound 1.8, N-(3-methyl-2-oxo-imidazolidin-1-yl)-4-[5-(trifluoromethyl)-1,2,4-oxadiazol-3-yl]benzamide] gave a melting point of 238 to 245 °C. Also, in series [1], the pest or weed control at 200 ppm is ≥ 80%. Further, in series [2], the pest or weed control at 200 ppm is ≥ 80%.
With `O=C1CN(NC(=O)c2ccc(-c3noc(C(F)(F)F)n3)cc2)C(=O)N1` [Compound 1.9], the melting point lay in the range of 192 to 196 °C. In series [1], the pest or weed control at 200 ppm was ≥ 80%. Besides, the pest or weed control at 200 ppm in series [3] is ≥ 80%.
The compound `O=C(NN1CCc2ccccc21)c1ccc(-c2noc(C(F)(F)F)n2)cc1` [Compound 1.10, N-indolin-1-yl-4-[5-(trifluoromethyl)-1,2,4-oxadiazol-3-yl]benzamide] had a melting point of 167 to 170 °C. Further, the inhibition of growth at 20 ppm in series [4] was ≥ 80%. For the same compound, in series [2], the pest or weed control at 200 ppm was ≥ 80%.
On to `O=C(Nn1ccc2ccccc21)c1ccc(-c2noc(C(F)(F)F)n2)cc1` [Compound 1.11, N-indol-1-yl-4-[5-(trifluoromethyl)-1,2,4-oxadiazol-3-yl]benzamide], for which the melting point was in the range of 188 to 190 °C. For the same compound, the inhibition of growth at 20 ppm in series [4] is ≥ 80%. In addition, in series [2], the pest or weed control at 200 ppm is ≥ 80%.
As to `O=C(NN1CCCCC1=O)c1c(F)cc(-c2noc(C(F)(F)F)n2)cc1F` [Compound 1.12, 2,6-difluoro-N-(2-oxo-1-piperidyl)-4-[5-(trifluoromethyl)-1,2,4-oxadiazol-3-yl]benzamide], the melting point lay in the range of 205 to 209 °C. Further, the inhibition of growth at 20 ppm in series [4] is ≥ 80%.
In turn, `Cc1cc(-c2noc(C(F)(F)F)n2)cnc1C(=O)NN1CCCCC1=O` [Compound 1.13, 3-methyl-N-(2-oxo-1-piperidyl)-5-[5-(trifluoromethyl)-1,2,4-oxadiazol-3-yl]pyridine-2-carboxamide] returned a melting point of 159 to 162 °C.
The compound `O=C(NN1CCOCC1)c1ccc(-c2noc(C(F)(F)F)n2)c(F)c1` [Compound 1.16, 3-fluoro-N-morpholino-4-[5-(trifluoromethyl)-1,2,4-oxadiazol-3-yl]benzamide] gave a melting point of 140 to 160 °C. The pest or weed control at 200 ppm in series [1] is ≥ 80%. For the same compound, in series [2], the pest or weed control at 200 ppm is ≥ 80%.
`O=C(NNCCO)c1ccc(-c2noc(C(F)(F)F)n2)cc1` [Compound 1.18, N′-(2-hydroxyethyl)-4-[5-(trifluoromethyl)-1,2,4-oxadiazol-3-yl]benzohydrazide] returned a melting point of 140 to 149 °C. Further, the inhibition of growth at 20 ppm in series [4] was ≥ 80%. Also, the pest or weed control at 200 ppm in series [2] was ≥ 80%. Further, the pest or weed control at 200 ppm in series [3] is ≥ 80%.
Compound `O=C(NN1CCOC1=O)c1ccc(-c2noc(C(F)(F)F)n2)c(F)c1` [Compound 1.25, 3-fluoro-N-(2-oxooxazolidin-3-yl)-4-[5-(trifluorormethyl)-1,2,4-oxadiazol-3-yl]benzamide] had a melting point of 146 to 166 °C. The inhibition of growth at 20 ppm in series [4] was ≥ 80%. The pest or weed control at 200 ppm in series [2] was ≥ 80%. Besides, the pest or weed control at 200 ppm in series [3] was ≥ 80%.
In the case of `O=C(Cc1ccc(-c2noc(C(F)(F)F)n2)cc1F)NN1CCOCC1` [Compound 1.28, 2-[2-fluoro-4-[5-(trifluoromethyl)-1,2,4-oxadiazoi-3-yl]phenyl]-N-morpholino-acetamide], the melting point lay within 201 to 203 °C. In addition, the inhibition of growth at 20 ppm in series [4] is ≥ 80%. The pest or weed control at 200 ppm in series [3] is ≥ 80%.
On to `O=C(Cc1ccc(-c2noc(C(F)(F)F)n2)cc1F)NN1CCCCC1=O` [Compound 1.29, 2-[2-fluoro-4-[5-(trifluoromethyl)-1,2,4-oxadiazol-3-yl]phenyl]-N-(2-oxo-1-piperidyl)acetamide], for which the melting point fell in the range of 154 to 156 °C. For the same compound, the inhibition of growth at 20 ppm in series [4] was ≥ 80%. Further, in series [2], the pest or weed control at 200 ppm was ≥ 80%. In series [3], the pest or weed control at 200 ppm was ≥ 80%.
Consider `CN(C)NC(=O)Cc1ccc(-c2noc(C(F)(F)F)n2)c(F)c1` [Compound 1.30, 2-[3-fluoro-4-[5-(trifluoromethyl)-1,2,4-oxadiazol-3-yl]phenyl]-N′,N′-dimethyl-acetohydrazide], for which the melting point was 163 to 165 °C. In addition, in series [4], the inhibition of growth at 20 ppm was ≥ 80%. Moreover, the pest or weed control at 200 ppm in series [2] was ≥ 80%. Moreover, the pest or weed control at 200 ppm in series [3] is ≥ 80%.
Compound `O=C(Cc1ccc(-c2noc(C(F)(F)F)n2)c(F)c1)NN1CCOCC1` [Compound 1.31, 2-[3-fluoro-4-[5-(trifluoromethyl)-1,2,4-oxadiazol-3-yl]phenyl]-N-morpholino-acetamide] yielded a melting point of 207 to 209 °C. The pest or weed control at 200 ppm in series [3] is ≥ 80%.
Turning to `O=C(Cc1ccc(-c2noc(C(F)(F)F)n2)c(F)c1)NN1CCCCC1=O` [Compound 1.32, 2-[3-flouro-4-[5-(trifluoromethyl)-1,2,4-oxadiazol-3-yl]phenyl]-N-(2-oxo-1-piperidyl)acetamide], the melting point fell in the range of 161 to 163 °C. Moreover, the inhibition of growth at 20 ppm in series [4] is ≥ 80%. For the same compound, the pest or weed control at 200 ppm in series [2] is ≥ 80%. Further, the pest or weed control at 200 ppm in series [3] is ≥ 80%.
